Series [1] can be described thus: Lipophilicity, logP of compound. The series is classed as physicochemical. The settings on record: octanol/water.
Series [2] addresses T1, UDP-3-O-acyl-N-acetylglucosamine deacetylase (Escherichia coli K-12) (UniProt P0A725).
T1 sequence (whole entry): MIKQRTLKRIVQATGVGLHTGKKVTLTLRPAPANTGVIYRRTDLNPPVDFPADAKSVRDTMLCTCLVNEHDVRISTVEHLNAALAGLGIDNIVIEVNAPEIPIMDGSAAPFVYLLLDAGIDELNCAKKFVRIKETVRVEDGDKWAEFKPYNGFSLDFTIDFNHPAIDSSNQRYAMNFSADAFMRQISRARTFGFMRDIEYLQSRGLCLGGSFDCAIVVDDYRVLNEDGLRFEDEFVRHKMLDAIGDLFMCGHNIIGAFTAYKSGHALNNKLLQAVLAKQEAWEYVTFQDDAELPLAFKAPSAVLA
The series can be described thus: Inhibition of LpxC in Escherichia coli assessed as reduction in bacterial growth measured after 20 hrs by CLSI protocol based microbroth dilution method. For orientation: Broth dilution looks for growth in wells or tubes with falling amounts of substance.

The target in series [3] is T1, UDP-3-O-acyl-N-acetylglucosamine deacetylase (Escherichia coli K-12). The series is described as follows: Inhibition of LpxC in Escherichia coli expressing deltaCdelta4LFhuA assessed as reduction in bacterial growth measured after 20 hrs by CLSI protocol based microbroth dilution method.
The target in series [4] is T2, UDP-3-O-acyl-N-acetylglucosamine deacetylase (Pseudomonas aeruginosa (strain ATCC 15692 / PAO1 / 1C / PRS 101 / LMG12228)) (UniProt P47205).
T2 sequence (whole entry): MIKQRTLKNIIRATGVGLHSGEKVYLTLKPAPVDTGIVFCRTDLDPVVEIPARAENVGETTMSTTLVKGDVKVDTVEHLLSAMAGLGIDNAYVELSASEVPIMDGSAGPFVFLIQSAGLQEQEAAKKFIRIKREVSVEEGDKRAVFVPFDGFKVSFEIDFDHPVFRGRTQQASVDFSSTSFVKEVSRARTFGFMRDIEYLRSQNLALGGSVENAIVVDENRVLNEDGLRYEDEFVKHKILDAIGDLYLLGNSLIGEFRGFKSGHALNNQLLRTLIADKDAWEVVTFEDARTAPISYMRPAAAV
The series is described as follows: Inhibition of LpxC in Pseudomonas aeruginosa assessed as reduction in bacterial growth measured after 20 hrs by CLSI protocol based microbroth dilution method.

Series [5] deals with T1, UDP-3-O-acyl-N-acetylglucosamine deacetylase (Escherichia coli K-12). The series can be described thus: Inhibition of LpxC in Escherichia coli harboring deltaTolC mutant assessed as reduction in bacterial growth measured after 20 hrs by CLSI protocol based microbroth dilution method.
For series [6] the target is unchanged. The series is described as follows: Inhibition of LpxC in Escherichia coli assessed as reduction in bacterial growth at 160 ug/ml measured after 20 hrs by CLSI protocol based microbroth dilution method.
Series [7] concerns the target T2, UDP-3-O-acyl-N-acetylglucosamine deacetylase (Pseudomonas aeruginosa (strain ATCC 15692 / PAO1 / 1C / PRS 101 / LMG12228)). The series is described as follows: Inhibition of LpxC in Pseudomonas aeruginosa assessed as delay in bacterial growth at 25 to 50 ug/ml measured after 20 hrs by CLSI protocol based microbroth dilution method.
Series [8] has as its target T1, UDP-3-O-acyl-N-acetylglucosamine deacetylase (Escherichia coli K-12). The series can be described thus: Inhibition of LpxC in Escherichia coli harboring deltaACRB mutant assessed as reduction in bacterial growth measured after 20 hrs by CLSI protocol based microbroth dilution method.
For series [9] the target is unchanged. The series is described as follows: Inhibition of LpxC in Escherichia coli expressing deltaCdelta4LFhuA assessed as reduction in bacterial growth at 80 ug/ml measured after 20 hrs by CLSI protocol based microbroth dilution method.
For series [10] the target is unchanged. The series is described as follows: Inhibition of LpxC in Escherichia coli assessed as reduction in bacterial growth at 80 ug/ml measured after 20 hrs by CLSI protocol based microbroth dilution method.
Series [11] has the same target. The series is described as follows: Inhibition of LpxC in Escherichia coli expressing deltaCdelta4LFhuA and harboring deltaTolC mutant assessed as reduction in bacterial growth measured after 20 hrs by CLSI protocol based microbroth dilution method.
The target is the same in series [12]. The series is described as follows: Inhibition of LpxC in Escherichia coli expressing deltaCdelta4LFhuA and harboring deltaACRB mutant assessed as reduction in bacterial growth measured after 20 hrs by CLSI protocol based microbroth dilution method.

SMILES strings stand for the structures. Values after ≈ are worked out from the molar mass of the structure shown. Active and inactive are the calls of the source. The rule behind the calls is not given here.

Broadly, the logP is the decadic logarithm of the partition coefficient of the neutral form, usually between octanol and water. A low value points to lower lipophilicity. Regarding `N[C@@H](Cc1cn(C[C@H]2O[C@@H](n3ccc(=O)[nH]c3=O)[C@H](O)[C@@H]2O)nn1)C(=O)NO`, the lipophilicity (logP) in [1] is -3.52.
Regarding `C#CC[C@H](NC(=O)c1ccc(OCC#CC)cc1)C(=O)NO`, the MIC was greater than 160 µg/mL in series [2]; 100 µg/mL (≈ 333 µM) in series [3]; 100 µg/mL (≈ 333 µM) in series [4]; 80 µg/mL (≈ 266 µM) in series [5]; 80 µg/mL (≈ 266 µM) in series [8]. Moreover, the inhibition result in [2] was “Dose-dependent effect”. For the same molecule, the logP in [1] is 1.29. Also, the inhibition entry in series [6] is “inactive”. In [7], the inhibition result was “Active”.
In turn, `C#CC[C@H](NC(=O)c1ccccc1)C(=O)NO` returned a lipophilicity (logP) in series [1] of 0.61.
Molecule `O=C(N[C@@H](Cc1cn(C[C@H]2O[C@@H](n3ccc(=O)[nH]c3=O)[C@H](O)[C@@H]2O)nn1)C(=O)NO)c1ccc(-c2ccccc2)cc1` showed a logP in series [1] of -0.01.
`CC#CCOc1ccc(C(=O)N[C@H](C(=O)NO)C(C)(C)N)cc1` registered a logP in series [1] of 0.44.
`CC#CCOc1ccc(C(=O)N[C@@H](Cc2cn(C[C@H]3O[C@@H](n4ccc(=O)[nH]c4=O)[C@H](O)[C@@H]3O)nn2)C(=O)NO)cc1` had a logP in series [1] of -1.69.
Take `C#CC[C@H](NC(=O)c1ccc(-c2ccccc2)cc1)C(=O)NO`: the inhibition entry in series [9] and in [10] was “inactive” each time. For the same molecule, the inhibition result in series [11] and in series [12] was “Active” each time. In addition, the MIC in [5] amounted to 16 µg/mL (≈ 51.9 µM); in series [8], 32 µg/mL (≈ 104 µM). The molecule further gave a log partition coefficient (logP) in series [1] of 2.28. Besides, the inhibition result in series [8] was “Dose-dependent effect”.

These data come from ChEMBL document CHEMBL4602638, “Propargylglycine-based antimicrobial compounds are targets of TolC-dependent efflux systems in Escherichia coli” (Bioorg Med Chem Lett, 2020).
